# Where a SMILES comes first, the peptide text is derived from it. Bridges are numbered along the chain shown (N, C = ends).
# What was measured:
# KV3.2 channel (hKV3.2) = experiment: Whole-cell patch clamp selectivity, KV3.2; format: cell-based, human; conditions: KV3.2, 10 µM, n = 5
# Method: The cDNA of hKV1.1, hKV1.3, rKV1.4, hKV1.5, rKV2.1, hKV3.1–3.4, mKV4.1, rKV4.2, and rKV4.3 were subcloned in the eukaryotic expression vector pCDNA3.1 or pCMV-blank. Channel mutants were made by a site-directed mutation method. Briefly, a pair of oppositely directed primers with 15 bp overlap at their 5′ ends and the designed mutation site were used to amplify the parental channel plasmid, then the PCR mix was treated with DpnI to remove the template. 10 μL digestion mix was directly used to transform 100 μL DH5α chemical competent cells. The correct mutation made by this procedure was finally confirmed by DNA sequencing. […] 4–6 h after transfection, cells were seeded onto poly-lysine (PLL) coated coverslips, and 24–36 h later, transfected cells were ready for patch-clamp analysis. […]
# Whole-cell patch clamp recording was performed in an electrophysiology platform equipped with MultiClamp 700B amplifier and Axon Digidata 1550 AD/DA convertor (Axon Instruments, Irvine, CA, United States). […] The whole cell conductance (G) at each depolarizing voltage (V) was determined using the equation: G = I/(V−Vrev), where I and Vrev represents the current amplitude and the reversal potential, respectively. In the present study, Vrev for K^+ current is determined to be −85.61 mV using the Nernst equation. […] Gating currents of KV4.1–4.3 channels were measured as previously reported ([Tilley et al., 2019]). […]
# KV4.3 channel (rKV4.3) = target: T1, KV4.3 channel (rKV4.3) (Rattus norvegicus, UniProt Q62897); experiment: Whole-cell patch clamp, KV4.3 in CHO-K1 cells; format: cell-based
# T1 construct: expressed in transfected cells; host or cells: CHO-K1 (transient, co-transfected with pEGFP-N1)
# T1 sequence (Q62897 1-655): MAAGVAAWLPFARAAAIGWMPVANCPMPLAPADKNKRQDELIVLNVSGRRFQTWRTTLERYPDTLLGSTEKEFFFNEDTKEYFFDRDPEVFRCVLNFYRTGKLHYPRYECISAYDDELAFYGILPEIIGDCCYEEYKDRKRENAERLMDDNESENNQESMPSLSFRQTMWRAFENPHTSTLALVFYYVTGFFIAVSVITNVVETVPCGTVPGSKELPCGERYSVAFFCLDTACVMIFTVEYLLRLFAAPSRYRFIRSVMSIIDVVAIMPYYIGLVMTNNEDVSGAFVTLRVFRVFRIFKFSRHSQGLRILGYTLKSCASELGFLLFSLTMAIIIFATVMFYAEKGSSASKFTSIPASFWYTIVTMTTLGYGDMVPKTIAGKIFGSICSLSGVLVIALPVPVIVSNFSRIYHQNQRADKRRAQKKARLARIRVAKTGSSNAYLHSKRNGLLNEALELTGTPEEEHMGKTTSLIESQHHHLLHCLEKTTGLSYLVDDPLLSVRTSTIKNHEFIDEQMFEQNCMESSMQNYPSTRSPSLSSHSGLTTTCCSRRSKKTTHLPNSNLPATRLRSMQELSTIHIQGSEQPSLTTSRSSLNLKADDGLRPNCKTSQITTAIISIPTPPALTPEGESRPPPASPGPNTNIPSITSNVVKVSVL
# Method: (§1) The cDNA of hKV1.1, hKV1.3, rKV1.4, hKV1.5, rKV2.1, hKV3.1–3.4, mKV4.1, rKV4.2, and rKV4.3 were subcloned in the eukaryotic expression vector pCDNA3.1 or pCMV-blank. Channel mutants were made by a site-directed mutation method. Briefly, a pair of oppositely directed primers with 15 bp overlap at their 5′ ends and the designed mutation site were used to amplify the parental channel plasmid, then the PCR mix was treated with DpnI to remove the template. 10 μL digestion mix was directly used to transform 100 μL DH5α chemical competent cells. The correct mutation made by this procedure was finally confirmed by DNA sequencing. CHO-K1 cells (ATCC® CCL-61™) were grown in DMEM-F12 mixed medium (1:1) supplemented with 10% FBS and maintained in standard conditions (saturated humidity, 37°C, 5% CO2). Channel plasmid was co-transfected with pEGFP-N1 (encodes the green fluoresence protein) into CHO-K1 cells using lipofectamine 2000 following the manufacturer’s instructions. 4–6 h after transfection, cells were seeded onto poly-lysine (PLL) coated coverslips, and 24–36 h later, transfected cells were ready for patch-clamp analysis. It should be note that KV4.2 and its mutants were also co-expressed with hKChIP1 to promote their functional expressions.
# (§2) Whole-cell patch clamp recording was performed in an electrophysiology platform equipped with MultiClamp 700B amplifier and Axon Digidata 1550 AD/DA convertor (Axon Instruments, Irvine, CA, United States). Data were acquired using the pClamp software (Axon Instruments, Irvine, CA, United States). All experiments were performed at room temperature. The bath solution contains (in mM): 140 NaCl, 5 KCl, 1 MgCl2, 2 CaCl2, 10 glucose, and 10 HEPES (pH = 7.3). The pipette solution contains (in mM): 140 KCl, 2.5 MgCl2, 11 EGTA, and 10 HEPES (pH = 7.3). Series resistance was kept below 10 MΩ and compensated to 80%. The concentration–response curves were fitted by a Hill logistic equation to estimate the potency (IC50) of the toxin. The whole cell conductance (G) at each depolarizing voltage (V) was determined using the equation: G = I/(V−Vrev), where I and Vrev represents the current amplitude and the reversal potential, respectively. In the present study, Vrev for K^+ current is determined to be −85.61 mV using the Nernst equation. G-V curve was obtained by plotting the normalized G as a function of V and fitted by the Boltzmann equation: y = 1/{1 + exp [(Va−V)/K]}, in which Va, V, and K represents half-maximum activation voltage, test voltage and slope factor, respectively. The steady-state fast inactivation of KV4 channels was measured using a classical two-pulses protocol: cell was held at −120 mV, and a train of conditional voltages (−120–40 mV, in 10 mV increment, 1,000 ms) were applied to induce channel inactivation, followed by a +60 mV test pulse (300 ms) to assess the proportion of non-inactivated channels; the sweep interval was set to 10 s. Currents at the test pulse (I) were normalized to the maximum value (Imax) and plotted as a function of the conditional voltage (V), the curve was fitted by the Boltzmann equation: I/Imax = A + (1−A)/{1 + exp [(V−Vh)/K]}, where Vh is the half-maximum inactivation voltage, A represents the minimum channel availability, and K is the slope factor. Gating currents of KV4.1–4.3 channels were measured as previously reported ([Tilley et al., 2019]). Briefly, the ionic pore currents were abolished by replacing K^+ with NMDG^+ in the pipette solution, and 10 µM Cs^+ was present in the bath solution to occupy the selectivity filter of KV channels to prevent decay of the gating currents during recording.
# (§3) Data were presented as MEAN ± SEM, n represents the number of separate experimental cells. Data were analyzed using the software Clampfit 10.5 (Axon Instruments, Irvine, CA, United States), Graphpad Prism 5.01 (GraphPad Software, La Jolla, CA, United States) and Excel 2010 (Microsoft Corporation, Redmond, WA, United States). […]
# KV4.3/N278K mutant = experiment: Whole-cell patch clamp, KV4.3/N278K in CHO-K1 cells; format: cell-based, rat
# Method: as §1, §2, §3
# [1] = 10 μM κ-LhTx-1, KV4.3, G-V, mean ± SEM, n = 10
# [2] = 10 μM κ-LhTx-1, KV4.3, two-pulse protocol, mean ± SEM, n = 7
# [3] = 10 μM κ-LhTx-1, G-V, mean ± SEM, n = 6
# [4] = 10 μM κ-LhTx-1, two-pulse protocol, mean ± SEM, n = 5
smiles,measurement,setting,value
"CC[C@H](C)[C@@H]1NC(=O)[C@H](CCC(N)=O)NC(=O)[C@@H]2CSSC[C@@H]3NC(=O)[C@H](CC(C)C)NC(=O)[C@H](CC(N)=O)NC(=O)[C@H](CCSC)NC(=O)[C@H](Cc4c[nH]c5ccccc45)NC(=O)[C@H](CO)NC(=O)[C@H](C)NC(=O)[C@@H](NC(=O)[C@H](CCC(=O)O)NC(=O)[C@H](CCC(N)=O)NC(=O)[C@H](C)NC(=O)[C@H](CC(=O)O)NC(=O)[C@@H](N)CCC(=O)O)CSSC[C@H](NC(=O)[C@H](CSSC[C@@H](C(=O)N[C@@H](CCCCN)C(=O)N[C@@H](Cc4ccc(O)cc4)C(=O)N[C@@H](CCCCN)C(=O)N[C@@H](CC(C)C)C(N)=O)NC(=O)[C@H](Cc4c[nH]c5ccccc45)NC1=O)NC(=O)[C@H](CCCCN)NC(=O)[C@H](CCCCN)NC(=O)[C@H](CCC(=O)O)NC(=O)CNC3=O)C(=O)N[C@@H](CCC(=O)O)C(=O)NCC(=O)N[C@@H](Cc1ccc(O)cc1)C(=O)N[C@@H](C(C)C)C(=O)N2 [κ-LhTx-1] (H-EDAQECASWMNLCGEKKCCEGYVCQIWCKYKL-NH2; disulfide 6-19, 13-24, 18-28 (inferred); N-terminus and C-terminus assumed)",effect on currents,KV3.2 channel (hKV3.2),did not remarkably affect the currents
same,Va (steady-state activation),KV4.3 channel (rKV4.3); [1],46.86 ± 1.52 mV
same,"k, slope factor (steady-state activation)",KV4.3 channel (rKV4.3); [1],20.45 ± 0.30 mV
same,Vh (steady-state inactivation),KV4.3 channel (rKV4.3); [2],-30.87 ± 2.23 mV
same,"k, slope factor (steady-state inactivation)",KV4.3 channel (rKV4.3); [2],6.21 ± 0.43 mV
same,reversibility of inhibition,KV4.3 channel (rKV4.3); KV4.3,in a reversible manner
same,voltage-dependence of inhibition,"KV4.3 channel (rKV4.3); KV4.3, 10 µM, inhibition ratio at each depolarizing voltage, n = 5–8",decreased quickly with the increment of the depolarizing voltage
same,I-V relationship shift,"KV4.3 channel (rKV4.3); KV4.3, 10 µM, n = 5–8",only a small shift
same,current inhibition at Va,KV4.3 channel (rKV4.3); KV4.3 at Va depolarizing voltage,almost fully inhibited
same,∆Va (steady-state activation),"KV4.3 channel (rKV4.3); Va shift by 10 μM κ-LhTx-1 vs control, KV4.3, mean ± SEM",39.88 ± 2.19 mV
same,∆Vh (steady-state inactivation),"KV4.3 channel (rKV4.3); Vh shift by 10 μM κ-LhTx-1 vs control, KV4.3, mean ± SEM",14.83 ± 3.34 mV
same,Va (steady-state activation),KV4.3/N278K mutant; [3],68.62 ± 1.73 mV
same,"k, slope factor (steady-state activation)",KV4.3/N278K mutant; [3],18.03 ± 0.87 mV
same,Vh (steady-state inactivation),KV4.3/N278K mutant; [4],-17.01 ± 1.57 mV
same,"k, slope factor (steady-state inactivation)",KV4.3/N278K mutant; [4],10.75 ± 0.63 mV
same,voltage-dependence of inhibition vs parental KV4.3,"KV4.3/N278K mutant; 10 μM, still greater than in KV4.1",much less voltage-dependence
same,∆Va (steady-state activation),"KV4.3/N278K mutant; Va shift by 10 μM κ-LhTx-1 vs control, mean ± SEM",59.97 ± 2.64 mV
same,∆Vh (steady-state inactivation),"KV4.3/N278K mutant; Vh shift by 10 μM κ-LhTx-1 vs control, mean ± SEM",30.24 ± 1.80 mV
